Measurements published in patent US6221874A, “Method of treating bone loss by stimulation of calcitonin” (American Home Products Corporation, priority 1999, dated 2001).

Tests used:
[1] = test system: calcitonin secreted by the C1-3 cell line (TT medullary thyroid carcinoma); test: Calcitonin Secretion/RIA Assay; assay type: cell-based; conditions: Homo sapiens, C13, C1-3 cells, active if Secretion Ratio>2.5
Procedure: Calcitonin Secretion/RIA Assay Protocol
This assay was used to determine the ability of a compound to increase the amount of calcitonin secreted by the C1-3 cell line.
Cell Line: C1-3 (Parent Cell Line: TT-medullary thyroid carcinoma),
1. Glass tubes were labeled to include Total Count (TC), Nonspecific Binding (NSB), Maximum Binding (Bo), Standards, Controls and Patient Sera in duplicate.
2. […] of Standard Zero (Reagent D) was added to tubes 3 through 6 (NSB and Bo).
3. […] of Standards* (Reagents E-1) was added to tubes 7-16 as follows:
4. […] of Patient Serum 1 was added to tubes 21 and 22, Patient Serum 2 was added to tubes 23 and 24, etc.
5. […] of Reagent L (NSB Buffer) was added to tubes 3 and 4.
6. […] of Reagent A (Anti-Calcitonin) was added to all tubes except tubes 1 & 2 (TC) and tube 3 & 4 (NSB). All tubes were vortexed, covered with parafilm or foil and incubated 44±6 hours at 2-8° C.
7. […] of 125.vertline.Calcitonin (Reagent B) was added to all tubes. All tubes were vortexed, covered with parafilm or foil and incubated 22±3 hours at 2-8° C.
8. Reagent C (Anti-Goat Precipitant) was mixed gently but thoroughly by inverting the vial several times before use. 1 mL Reagent C was added to all tubes except 1 and 2 (TC). Tubes were vortexed and incubated 20 minutes at room temperature.
9. All tubes were centrifuged at 1300-1500×g for 15 minutes at 2-8° C.
10. Supernatant was decanted immediately after centrifugation taking care to leave the precipitate intact.
11. Tubes were counted 4 minutes or longer.
Secretion Ratio: Stimulation of calcitonin secretion is expressed as a ratio of secretion activity in the presence of test compound compared to the secretion activity in the untreated control: [formula]
Secretion Activity: Compounds were designated active if Secretion Ratio>2.5.

[2] = test system: promoter region of the human calcitonin gene (C1-3 reporter cells, TT human thyroid carcinoma); test: Calcitonin/Luciferase Reporter Gene Expression Assay (transcription activation ratio); assay type: cell-based; conditions: C13, 12 h, C1-3 cells, active if TAR>1.5, read-out: TAR (transcription activation ratio, luciferase activity with test compound vs untreated control)
[3] = test system: Phosphodiesterase IV (PDE-IV) isolated from human U937 cells; test: Inhibition of Phosphodiesterase IV (PDE-IV) Isolated from Human U937 Cells; assay type: biochemical; conditions: for IC50: linear regression of percent inhibition data bracketing 50% inhibition; for % Inhibition of PDE IV (normalized to rolipram): 1 μM [3H]-cAMP substrate
[4] = test system: Ovarietomy Induced Osteopenia in Rats; test: Ovarietomy Induced Osteopenia in Rats (trabecular BMD); assay type: in vivo; conditions: Rattus norvegicus, 672 h; 30 mg/kg/day, ip; 4 weeks; n=8; * p < 0.005 vs. vehicle value (Examples 6, 12, 18); read-out: Percent Protection (trabecular BMD)
[5] = post-menopausal osteoporosis; cited from earlier work
[6] = cited from earlier work

IC50 [3]	Molecule	fold induction at 30 µM [1]	fold induction at 30 µM [2]	% Inhibition of PDE IV (normalized to rolipram) [3]	inhibition in vivo at 30 mg/kg [4]	effect on bone mass and total body calcium [5]	incidence of hip and vertebral fractures [5]	oral bioavailability (in words) [6]
25.2 µM	CCCCn1c(=O)c2c(ncn2S(C)(=O)=O)n(CCCC)c1=O [Example 1, 1,3-Dibutyl-7-methanesulfonyl-3,7-dihydro-purine-2,6-dione]	4.65	2.1	16%	–	–	–	–
–	CCCCn1c(=O)c2c(ncn2S(=O)(=O)CCCC)n(CCCC)c1=O [Example 2, 7-(Butane-1-sulfonyl)-1,3-dibutyl-3,7-dihydro-purine-2,6-dione]	4.65	2.2	97%	23%	–	–	–
–	CCCCn1c(=O)c2c(ncn2S(=O)(=O)c2cccc([N+](=O)[O-])c2)n(CCCC)c1=O [Example 3, 1,3-Dibutyl-7-(3-nitro-benzenesulfonyl)-3,7-dihydro-purine-2,6-dione]	1.65	2	87%	30%	–	–	–
1.2 µM	CCCCn1c(=O)c2c(ncn2S(=O)(=O)c2ccc(OC)c(OC)c2)n(CCCC)c1=O [Example 4, 1,3-Dibutyl-7-(3,4-dimethoxy-benzenesulfonyl)-3,7-dihydro-purine-2,6-dione]	4.7	2.5	41%	35%	–	–	–
–	CCCCn1c(=O)c2c(ncn2S(=O)(=O)c2cccs2)n(CCCC)c1=O [Example 5, 1,3-Dibutyl-7-(thiophene-2-sulfonyl)-3,7-dihydro-purine-2,6-dione]	–	1.8	52%	–	–	–	–
4.1 µM	CCCCn1c(=O)c2c(ncn2S(=O)(=O)CCCCl)n(CCCC)c1=O [Example 6, 1,3-Dibutyl-7-(3-chloro-propane-1-sulfonyl)-3,7-dihydro-purine-2,6-dione]	3.6	2	44%	47%	–	–	–
–	CCCCn1c(=O)c2c(ncn2S(=O)(=O)c2cccc3ccccc23)n(CCCC)c1=O [Example 7, 1,3-Dibutyl-7-(naphthalene-1-sulfonyl)-3,7-dihydro-purine-2,6-dione]	4.5	2.5	83%	37%	–	–	–
–	CCCCn1c(=O)c2c(ncn2S(=O)(=O)c2ccc(NO)cc2)n(CCCC)c1=O [Example 8, 1,3-Dibutyl-7-(4-hydroxyamino-benzenesulfonyl)-3,7-dihydro-purine-2,6-dione]	5.4	2	82%	-2%	–	–	–
3.2 µM	CCCCn1c(=O)c2c(ncn2S(=O)(=O)Cc2ccccc2)n(CCCC)c1=O [Example 9, 1,3-Dibutyl-7-phenylmethanesulfonyl-3,7-dihydro-purine-2,6-dione]	5.1	2.3	93%	25%	–	–	–
–	CCCCn1c(=O)c2c(ncn2S(=O)(=O)C[C@@]23CC[C@@H](CC2=O)C3(C)C)n(CCCC)c1=O [Example 10, 1,3-Dibutyl-7-(7,7-dimethyl-2-oxo-bicyclo[2.2. 1]hept-1-ylmethanesulfonyl)-3,7-dihydro-purine-2,6-dione]	4.5	2	89%	-10%	–	–	–
–	CCCCn1c(=O)c2c(ncn2S(=O)(=O)c2ccc(N(OC(C)=O)C(C)=O)cc2)n(CCCC)c1=O [Example 11, N-Acetoxy-N-[4-(1,3-dibutyl-2,6-dioxo-1,2,3,6-tetrahydro-purine-7-sulfonyl)-phenyl]-acetamide]	4.3	2.1	–	–	–	–	–
6 µM	CCCCn1c(=O)c2c(ncn2S(=O)(=O)c2c(C)cc(C)cc2C)n(CCCC)c1=O [Example 12, 1,3-Dibutyl-7-(2,4,6-trimethyl-benzenesulfonyl)-3,7-dihydro-purine-2,6-dione]	4.04	2.1	42%	50%	–	–	–
–	CCCCn1c(=O)c2c(ncn2S(=O)(=O)c2ccc(C(C)(C)C)cc2)n(CCCC)c1=O [Example 13, 1,3-Dibutyl-7-(4-tert-butyl-benzenesulfonyl)-3,7-dihydro-purine-2,6-dione]	5.1	1.8	66%	13%	–	–	–
–	CCCCn1c(=O)c2c(ncn2S(=O)(=O)c2c(C)noc2C)n(CCCC)c1=O [Example 14, 1,3-Dibutyl-7-(3,5-dimethyl-isoxazole-4-sulfonyl)-3,7-dihydro-purine-2,6-dione]	3.3	2.5	20%	–	–	–	–
5.2 µM	CCCCn1c(=O)n(CC=C(C)C)c(=O)c2c1ncn2S(=O)(=O)c1ccc(C)cc1 [Example 15, 3-Butyl-1-(3-methyl-but-2-enyl)-7-(toluene-4-sulfonyl)-3,7-dihydro-purine-2,6-dione]	3.74	2.1	35%	15%	–	–	–
6 µM	CCCCn1c(=O)n(CC)c(=O)c2c1ncn2S(=O)(=O)c1ccc(C)cc1 [Example 16, 3-Butyl-1-ethyl-7-(toluene-4-sulfonyl)-3,7-dihydro-purine-2,6-dione]	–	2.1	38%	–	–	–	–
–	CCCCn1c(=O)n(CC=C(C)C)c(=O)c2c1ncn2S(=O)(=O)c1ccc(OC)c(OC)c1 [Example 17, 3-Butyl-7-(3,4-dimethoxy-benzenesulfonyl)-1-(3-methyl-but-2-enyl)-3,7-dihydro-purine-2,6-dione]	3.66	2.8	24%	–	–	–	–
23.3 µM	CCCCn1c(=O)c2c(ncn2S(=O)(=O)c2cc(C)c(Cl)cc2C)n(CCCC)c1=O [Example 18, 1,3-Dibutyl-7-(4-chloro-2,5-dimethyl-benzenesulfonyl)-3,7-dihydro-purine-2,6-dione]	5.32	2.5	37%	52%	–	–	–
–	CCCCn1c(=O)c2c(nc(C)n2S(=O)(=O)CCCCl)n(CCCC)c1=O [Example 19, 1,3-Dibutyl-7-(3-chloro-propane-1-sulfonyl)-8-methyl-3,7-dihydro-purine-2,6-dione]	4.09	1.7	5%	–	–	–	–
–	CCCCn1c(=O)c2c(nc(C)n2S(=O)(=O)c2ccc(C)cc2)n(CCCC)c1=O [Example 20, 1,3-Dibutyl-8-methyl-7-(toluene-4-sulfonyl)-3,7-dihydro-purine-2,6-dione]	3.23	2	58%	–	–	–	–
–	calcitonin: 32 amino acid polypeptide hormone secreted by the parafollicular or C cells of the thyroid gland	–	–	–	–	maintenance of bone mass and total body calcium	decreases in the incidence of hip and vertebral fractures	lack of oral bioavailability
